pIC50: −log10 of the molar value. Active and inactive are the calls of the source. The calls are words filed in the database; no cut-off is given here.
Assays:
[1] = molecular target: Signal transducer and activator of transcription 3 (Homo sapiens) (UniProt P40763); assay: Inhibition of STAT3 in human MDA-MB-231 cells assessed as reduction in STAT-3 phosphorylation incubated for 8 hrs by Western blot analysis; assay type: cell-based; conditions: dose 2.5-20 µM
[2] = molecular target: Histone deacetylase 5 (Homo sapiens, UniProt Q9UQL6); assay: (§1) Inhibition of recombinant human N-terminal GST-tagged HDAC-5 (617 to end residues) expressed in baculovirus infected in Sf9 cells using Boc-Lys (q-Ac)-AMC as substrate incubated for 10 mins followed by substrate addition and measured after 30 mins by fluorescence based assay
[3] = molecular target: Protein deacetylase HDAC6 (Homo sapiens, UniProt Q9UBN7); assay: Inhibition of recombinant human N-terminal GST-tagged full length HDAC-6 expressed in baculovirus infected in Sf9 cells using Boc-Lys (q-Ac)-AMC as substrate incubated for 10 mins followed by substrate addition and measured after 30 mins by fluorescence based assay
[4] = molecular target: Histone deacetylase 9 (Homo sapiens, UniProt Q9UKV0); assay: as §1, with “HDAC-9 (548” for “HDAC-5 (617”, “cells at 10 uM” for “cells”, “assay relative to control” for “assay”; conditions: time 40.0 min
[5] = test system: MDA-MB-231; assay: Induction of apoptosis in human MDA-MB-231 cells xenografted in BALB/c mouse assessed as increase in caspase-3 cleavage by immunohistochemistry method; assay type: functional, cell-based
[6] = test system: 4T1; assay: Cytotoxicity against mouse 4T1 cells assessed as reduction in cell viability incubated for 48 hrs by MTT assay; assay type: functional, cell-based; conditions: 4T1, 48 h
[7] = test system: MDA-MB-468; assay: Cytotoxicity against human MDA-MB-468 cells assessed as reduction in cell viability incubated for 48 hrs by MTT assay; assay type: functional, cell-based; conditions: MDA-MB-468, 48 h
[8] = test system: A-375; assay: Cytotoxicity against human A-375 cells assessed as reduction in cell viability incubated for 48 hrs by MTT assay; assay type: functional, cell-based; conditions: A-375, 48 h
[9] = test system: HepG2; assay: Cytotoxicity against human HepG2 cells assessed as reduction in cell viability incubated for 48 hrs by MTT assay; assay type: functional, cell-based; conditions: HepG2, 48 h
[10] = test system: NCI-H460; assay: Cytotoxicity against human NCI-H460 cells assessed as reduction in cell viability incubated for 48 hrs by MTT assay; assay type: functional, cell-based; conditions: NCI-H460, 48 h
[11] = test system: L02; assay: Cytotoxicity against human L02 cells assessed as reduction in cell viability incubated for 48 hrs by MTT assay; assay type: ADME, cell-based; conditions: L02, 48 h
[12] = test system: MDA-MB-231; assay: Potency index, ratio of IC50 of SAHA to IC50 of compound for cytotoxicity against human MDA-MB-231 cells assessed as reduction in cell viability incubated for 48 hrs by MTT assay; assay type: functional
[13] = test system: MDA-MB-468; assay: Potency index, ratio of IC50 of SAHA to IC50 of compound for cytotoxicity against human MDA-MB-468 cells assessed as reduction in cell viability incubated for 48 hrs by MTT assay; assay type: functional
[14] = test system: MDA-MB-231; assay: Induction of cell cycle arrest in human MDA-MB-231 cells assessed as G2/M phase accumulation at 1 uM incubated for 24 hrs by PI staining based flow cytometry analysis (reference value: 27.08 %); assay type: functional
[15] = test system: MDA-MB-231; assay: Induction of cell cycle arrest in human MDA-MB-231 cells assessed as G2/M phase accumulation at 2 uM incubated for 24 hrs PI staining based by flow cytometry analysis (reference value: 27.08 %); assay type: functional
[16] = test system: 4T1; assay: Induction of cell cycle arrest in mouse 4T1 cells assessed as G0/G1 phase accumulation at 2 uM incubated for 24 hrs by PI staining based flow cytometry analysis (reference value: 42.06 %); assay type: functional
[17] = test system: 4T1; assay: Induction of cell cycle arrest in mouse 4T1 cells assessed as increase in G0/G1 phase accumulation incubated for 24 hrs by flow cytometry analysis; assay type: functional, cell-based; conditions: dose 1-2 µM
[18] = test system: MDA-MB-231; assay: Induction of apoptosis in human MDA-MB-231 cells assessed as late apoptotic cells at 2.5 uM incubated for 72 hrs by annexinV-FITC and PI staining based flow cytometry analysis (reference value: 3.79 %); assay type: functional
[19] = test system: MDA-MB-231; assay: Induction of apoptosis in human MDA-MB-231 cells assessed as necrotic cells at 2.5 uM incubated for 72 hrs by annexinV-FITC and PI staining based flow cytometry analysis (reference value: 0.330 %); assay type: functional
[20] = test system: MDA-MB-231; assay: Induction of apoptosis in human MDA-MB-231 cells assessed as early apoptotic cells at 5 uM incubated for 72 hrs by annexinV-FITC and PI staining based flow cytometry analysis (reference value: 5.57 %); assay type: functional
[21] = test system: MDA-MB-231; assay: Induction of apoptosis in human MDA-MB-231 cells assessed as late apoptotic cells at 5 uM incubated for 72 hrs by annexinV-FITC and PI staining based flow cytometry analysis (reference value: 3.79 %); assay type: functional
[22] = test system: 4T1; assay: Induction of apoptosis in mouse 4T1 cells assessed as late apoptotic cells at 1 uM incubated for 72 hrs by annexinV-FITC and PI staining based flow cytometry analysis (reference value: 2.24 %); assay type: functional
[23] = test system: 4T1; assay: Induction of apoptosis in mouse 4T1 cells assessed as viable cells at 2.5 uM incubated for 72 hrs by annexinV-FITC and PI staining based flow cytometry analysis (reference value: 91.1 %); assay type: functional; conditions: read-out: Activity
[24] = test system: 4T1; assay: Induction of apoptosis in mouse 4T1 cells assessed as viable cells at 5 uM incubated for 72 hrs by annexinV-FITC and PI staining based flow cytometry analysis (reference value: 91.1 %); assay type: functional; conditions: read-out: Activity
[25] = test system: 4T1; assay: Induction of apoptosis in mouse 4T1 cells assessed as necrotic cells at 5 uM incubated for 72 hrs by annexinV-FITC and PI staining based flow cytometry analysis (reference value: 5.00 %); assay type: functional
[26] = test system: MDA-MB-231; assay: Induction of apoptosis in human MDA-MB-231 cells assessed as increase in caspase-3 cleavage incubated for 48 hrs by Western blot analysis; assay type: functional, cell-based; conditions: dose 0.5-10 µM
[27] = test system: MDA-MB-231; assay: Induction of apoptosis in human MDA-MB-231 cells assessed as effect on Bax expression at 0.5 to 10 uM incubated for 48 hrs by Western blot analysis; assay type: functional, cell-based; conditions: dose 0.5-10 µM
[28] = Half life in Sprague-Dawley rat at 20 mg/kg, po measured upto 12 hrs by LC-MS/MS analysis; assay type: ADME, organism-based; conditions: in vivo
[29] = Half life in Sprague-Dawley rat at 20 mg/kg, iv measured upto 12 hrs by LC-MS/MS analysis; assay type: ADME, organism-based; conditions: in vivo
[30] = Genotoxicity in Salmonella typhimurium TA97a by Ames test; assay type: toxicity; conditions: salmonella enterica subsp. enterica serovar typhimurium
[31] = Genotoxicity in Salmonella typhimurium TA1535 by Ames test; assay type: toxicity; conditions: salmonella enterica subsp. enterica serovar typhimurium
[32] = test system: MDA-MB-231; assay: Antitumor activity against human MDA-MB-231 cells xenografted in nude mouse assessed as tumor growth inhibition at 25 mg/kg, ip administered for 34 days and measured on day 34; assay type: functional, organism-based; conditions: time 34.0 day
[33] = Toxicity in BALB/c mouse xenografted with mouse 4T1 cells assessed as effect on body weight at 20 mg/kg, ip administered for 22 days and measured on day 22; assay type: organism-based; conditions: in vivo, 528 h, time 22 day
[34] = test system: 4T1; assay: Induction of apoptosis in mouse 4T1 cells implanted in BALB/c mouse assessed as increase in caspase-3 cleavage by immunohistochemistry method; assay type: functional, cell-based

Protein deacetylase HDAC6, sequence (Q9UBN7 whole entry): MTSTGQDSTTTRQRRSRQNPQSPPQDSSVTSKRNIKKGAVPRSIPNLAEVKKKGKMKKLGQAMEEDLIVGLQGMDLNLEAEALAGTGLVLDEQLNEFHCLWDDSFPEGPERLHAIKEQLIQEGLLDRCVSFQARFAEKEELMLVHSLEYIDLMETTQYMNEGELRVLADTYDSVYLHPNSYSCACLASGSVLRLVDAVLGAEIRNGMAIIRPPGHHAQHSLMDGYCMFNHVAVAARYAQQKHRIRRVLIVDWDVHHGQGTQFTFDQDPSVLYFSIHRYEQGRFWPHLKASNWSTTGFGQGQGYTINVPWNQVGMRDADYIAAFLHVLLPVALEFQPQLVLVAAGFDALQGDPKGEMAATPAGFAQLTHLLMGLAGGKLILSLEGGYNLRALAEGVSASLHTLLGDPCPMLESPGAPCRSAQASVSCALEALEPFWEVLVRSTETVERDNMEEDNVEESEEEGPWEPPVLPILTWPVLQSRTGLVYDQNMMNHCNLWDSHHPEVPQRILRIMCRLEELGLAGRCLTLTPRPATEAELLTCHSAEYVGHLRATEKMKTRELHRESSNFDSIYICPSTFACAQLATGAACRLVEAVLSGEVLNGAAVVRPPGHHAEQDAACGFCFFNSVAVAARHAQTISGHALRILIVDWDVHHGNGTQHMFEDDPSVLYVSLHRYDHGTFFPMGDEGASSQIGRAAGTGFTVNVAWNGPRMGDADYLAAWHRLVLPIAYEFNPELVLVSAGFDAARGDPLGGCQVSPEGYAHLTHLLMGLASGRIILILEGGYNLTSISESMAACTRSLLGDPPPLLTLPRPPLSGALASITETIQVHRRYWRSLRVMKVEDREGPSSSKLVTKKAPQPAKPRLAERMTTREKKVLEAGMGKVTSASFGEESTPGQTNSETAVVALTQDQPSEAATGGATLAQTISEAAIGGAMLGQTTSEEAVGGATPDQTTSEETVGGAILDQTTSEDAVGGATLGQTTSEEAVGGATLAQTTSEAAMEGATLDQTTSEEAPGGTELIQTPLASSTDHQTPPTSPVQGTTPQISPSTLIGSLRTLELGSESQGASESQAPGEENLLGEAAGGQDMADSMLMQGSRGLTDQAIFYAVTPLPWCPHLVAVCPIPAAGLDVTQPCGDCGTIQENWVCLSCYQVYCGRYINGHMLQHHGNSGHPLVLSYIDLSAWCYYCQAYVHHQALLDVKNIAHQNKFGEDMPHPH
Histone deacetylase 9, sequence (Q9UKV0 whole entry): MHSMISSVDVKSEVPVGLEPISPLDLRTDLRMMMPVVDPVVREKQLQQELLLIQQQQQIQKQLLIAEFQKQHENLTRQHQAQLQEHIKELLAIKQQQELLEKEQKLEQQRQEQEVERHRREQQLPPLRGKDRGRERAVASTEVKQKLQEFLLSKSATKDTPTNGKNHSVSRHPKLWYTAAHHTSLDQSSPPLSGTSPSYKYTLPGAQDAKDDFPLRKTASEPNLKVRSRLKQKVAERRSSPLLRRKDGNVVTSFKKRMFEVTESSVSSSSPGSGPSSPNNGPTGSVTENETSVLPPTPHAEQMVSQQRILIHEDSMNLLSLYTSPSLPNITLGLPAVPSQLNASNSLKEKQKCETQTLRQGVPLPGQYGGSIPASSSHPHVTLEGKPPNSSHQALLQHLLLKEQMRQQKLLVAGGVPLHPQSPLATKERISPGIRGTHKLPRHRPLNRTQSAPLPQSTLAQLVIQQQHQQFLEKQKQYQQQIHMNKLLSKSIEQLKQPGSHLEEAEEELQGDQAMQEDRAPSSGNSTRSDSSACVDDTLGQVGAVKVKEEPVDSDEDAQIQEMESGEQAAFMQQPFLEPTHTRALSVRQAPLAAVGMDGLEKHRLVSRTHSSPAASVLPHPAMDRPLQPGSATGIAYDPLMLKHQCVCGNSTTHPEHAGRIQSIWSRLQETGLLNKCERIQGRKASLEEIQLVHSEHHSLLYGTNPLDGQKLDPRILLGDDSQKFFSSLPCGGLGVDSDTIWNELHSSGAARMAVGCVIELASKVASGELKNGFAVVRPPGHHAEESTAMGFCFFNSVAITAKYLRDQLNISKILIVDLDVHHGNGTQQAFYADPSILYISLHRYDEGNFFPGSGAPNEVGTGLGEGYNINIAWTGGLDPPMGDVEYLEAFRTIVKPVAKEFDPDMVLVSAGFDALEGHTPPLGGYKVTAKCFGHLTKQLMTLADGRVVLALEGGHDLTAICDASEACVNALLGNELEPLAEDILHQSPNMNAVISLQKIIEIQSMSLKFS
Histone deacetylase 5, sequence (Q9UQL6 whole entry): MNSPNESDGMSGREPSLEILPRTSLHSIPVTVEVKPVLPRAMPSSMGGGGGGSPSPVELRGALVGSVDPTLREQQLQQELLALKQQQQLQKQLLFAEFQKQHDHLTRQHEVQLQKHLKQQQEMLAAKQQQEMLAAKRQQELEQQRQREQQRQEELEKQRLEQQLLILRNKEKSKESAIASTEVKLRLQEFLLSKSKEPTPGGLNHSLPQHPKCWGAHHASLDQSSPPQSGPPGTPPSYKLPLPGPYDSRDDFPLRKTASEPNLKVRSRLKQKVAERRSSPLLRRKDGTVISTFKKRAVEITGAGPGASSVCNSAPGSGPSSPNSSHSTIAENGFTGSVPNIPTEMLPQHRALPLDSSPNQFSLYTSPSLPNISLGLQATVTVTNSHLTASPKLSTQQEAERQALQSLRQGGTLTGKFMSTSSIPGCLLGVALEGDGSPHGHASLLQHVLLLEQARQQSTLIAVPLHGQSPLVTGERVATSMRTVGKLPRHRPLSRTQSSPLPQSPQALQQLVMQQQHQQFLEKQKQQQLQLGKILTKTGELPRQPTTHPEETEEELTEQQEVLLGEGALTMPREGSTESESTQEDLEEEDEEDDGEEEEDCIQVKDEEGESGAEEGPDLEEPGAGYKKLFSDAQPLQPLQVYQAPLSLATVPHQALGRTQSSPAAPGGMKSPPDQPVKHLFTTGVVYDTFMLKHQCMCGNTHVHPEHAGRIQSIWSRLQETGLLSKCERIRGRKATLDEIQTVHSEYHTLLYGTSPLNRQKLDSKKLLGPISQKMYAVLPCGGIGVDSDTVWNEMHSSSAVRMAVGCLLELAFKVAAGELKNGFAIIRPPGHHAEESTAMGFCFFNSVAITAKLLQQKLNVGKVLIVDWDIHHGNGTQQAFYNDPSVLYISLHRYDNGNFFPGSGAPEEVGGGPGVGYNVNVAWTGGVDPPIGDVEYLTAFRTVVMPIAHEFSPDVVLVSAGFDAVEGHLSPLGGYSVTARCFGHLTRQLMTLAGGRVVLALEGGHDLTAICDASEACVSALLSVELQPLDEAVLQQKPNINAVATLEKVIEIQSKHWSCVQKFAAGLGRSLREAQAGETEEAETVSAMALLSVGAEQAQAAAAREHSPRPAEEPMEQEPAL
Signal transducer and activator of transcription 3 (Homo sapiens), sequence (P40763 whole entry): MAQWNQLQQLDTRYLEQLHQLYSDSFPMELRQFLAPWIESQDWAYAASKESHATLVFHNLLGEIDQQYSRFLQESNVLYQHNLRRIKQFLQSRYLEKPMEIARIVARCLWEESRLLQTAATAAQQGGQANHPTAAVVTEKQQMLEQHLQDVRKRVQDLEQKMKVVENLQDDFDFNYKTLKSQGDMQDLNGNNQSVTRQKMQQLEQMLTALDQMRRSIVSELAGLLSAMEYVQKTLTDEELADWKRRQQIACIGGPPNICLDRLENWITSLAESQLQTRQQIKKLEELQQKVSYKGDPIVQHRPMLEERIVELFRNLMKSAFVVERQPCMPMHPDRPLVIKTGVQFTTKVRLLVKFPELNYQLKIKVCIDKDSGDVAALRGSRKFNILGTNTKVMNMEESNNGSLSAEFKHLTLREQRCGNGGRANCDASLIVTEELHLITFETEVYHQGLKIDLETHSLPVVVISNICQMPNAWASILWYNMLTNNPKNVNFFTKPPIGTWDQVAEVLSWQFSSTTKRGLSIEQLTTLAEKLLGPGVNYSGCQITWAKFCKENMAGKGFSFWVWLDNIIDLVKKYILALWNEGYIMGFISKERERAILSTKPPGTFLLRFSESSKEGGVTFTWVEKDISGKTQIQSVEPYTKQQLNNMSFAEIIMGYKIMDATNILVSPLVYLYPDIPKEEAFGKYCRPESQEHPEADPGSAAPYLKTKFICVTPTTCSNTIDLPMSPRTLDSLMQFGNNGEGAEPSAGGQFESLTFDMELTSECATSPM

For CN(C)CCOc1ccc(-c2cc(=O)c3c(O)cc(OCCCCCC(=O)NO)cc3o2)cc1.Cl, the inhibition [1] was “Dose-dependent effect”, the pIC50 [2] was < 5.00 and the pIC50 [3] was 7.59. For the same compound, the inhibition [4] was 26%, the Activity [5] was “Active” and the pIC50 [6] was 5.70. It also gave a pIC50 [7] of 5.47, a pIC50 [8] of 5.93 and a pIC50 [9] of 5.94. The pIC50 [10] was 5.56, the pIC50 [11] was < 5.00 and the “Ratio IC50” value [12] was 2. The “Ratio IC50” value [13] was 2, the Activity [14] was 42.82% and the Activity [15] was 27.89%. For the same compound, the Activity [16] was 62.91%, the Activity [17] was “Dose-dependent effect” and the Activity [18] was 24.3%. For the same compound, the Activity [19] was 0.11%, the Activity [20] was 55% and the Activity [21] was 27.2%. It also gave an Activity [22] of 8.59%, a viability at 2.5 µM [23] of 32.9% and a viability at 5 µM [24] of 22.5%. For the same compound, the Activity [25] was 0.852%, the Activity [26] was “Dose-dependent effect” and the Activity [27] was “inactive”. For the same compound, the half-life [28] was 14.9 min, the half-life [29] was 85.3 min and the Activity [30] was “Non-Toxic”. For the same compound, the Activity [31] was “Non-Toxic”, the TGI [32] was “Active” and the Activity [33] was “Non-Toxic”. For the same compound, the Activity [34] was “Active”.

Reference: ChEMBL document CHEMBL4765432, “Design and synthesis of novel Flavone-based histone deacetylase inhibitors antagonizing activation of STAT3 in breast cancer” (Eur J Med Chem, 2020)
